Calls of active or inactive are those of the source. No rule for the calls is given here.

The test system of the data set is rodent carcinogenicity bioassays, tumor incidence. Nature of the data set: CCRIS carcinogenicity studies. In a few lines: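 Archive of carcinogenicity, mutagenicity, tumor promotion and tumor inhibition results drawn from journals, NCI reports and other sources, expert-reviewed; covers 1985-2011 and is no longer updated.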

In the case of `Nc1ccc(N)c2c1C(=O)c1c(N)ccc(N)c1C2=O`, the carcinogen call is, setting by setting: (Species: MOUSE, Strain/Sex: B6C3F1/FEMALE, Route: ORAL, Dose: 0, 600, 1200, 2500 PPM IN DIET FOR 104 WK (STUDY DURATION: 105 WK), Dose: 0, 600, 1200, 2500 PPM IN DIET FOR 104 WK (STUDY DURATION: 105 WK)) “inactive; negative”; (Species: MOUSE, Strain/Sex: B6C3F1/MALE, Route: ORAL, Dose: 0, 600, 1200, 2500 PPM IN DIET FOR 104 WK (STUDY DURATION: 105 WK), Dose: 0, 600, 1200, 2500 PPM IN DIET FOR 104 WK (STUDY DURATION: 105 WK), Tumor Site: Type of Lesion: LIVER: HEPATOCELLULAR ADENOMA OR CARCINOMA, LUNG: ALVEOLAR/BRONCHIOLAR ADENOMA OR CARCINOMA) “equivocal”; (Species: RAT, Strain/Sex: F344/FEMALE, Route: ORAL, Dose: 0, 1250, 2500, 5000 PPM IN DIET FOR 103 WK (STUDY DURATION: 105 WK), Dose: 0, 1250, 2500, 5000 PPM IN DIET FOR 103 WK (STUDY DURATION: 105 WK), Tumor Site: Type of Lesion: URINARY BLADDER: SQUAMOUS CELL PAPILLOMA, SQUAMOUS CELL CARCINOMA, TRANSITIONAL CELL PAPILLOMA, TRANSITIONAL CELL CARCIN) “active; positive”; (Species: RAT, Strain/Sex: F344/MALE, Route: ORAL, Dose: 0, 1250, 2500, 5000 PPM IN DIET FOR 103 WK (STUDY DURATION: 105 WK), Dose: 0, 1250, 2500, 5000 PPM IN DIET FOR 103 WK (STUDY DURATION: 105 WK), Tumor Site: Type of Lesion: URINARY BLADDER: SQUAMOUS CELL PAPILLOMA, SQUAMOUS CELL PAPILLOMA OR CARCINOMA, TRANSITIONAL CELL PAPILLOMA, TRANSITIONA) “active; positive”.

Take `Oc1c(Cl)cc(Cl)cc1Cl`: the carcinogen call runs as follows: (Species: MOUSE, Strain/Sex: B6C3F1/FEMALE, Route: ORAL, Dose: 0, 5214, 10428 PPM IN DIET, Dose: 0, 5214, 10428 PPM IN DIET, Tumor Site: Type of Lesion: LIVER: HEPATOCELLULAR CARCINOMA OR ADENOMA) “active; positive”; (Species: MOUSE, Strain/Sex: B6C3F1/MALE, Route: ORAL, Dose: 0, 5000, 10000 PPM IN DIET, Dose: 0, 5000, 10000 PPM IN DIET, Tumor Site: Type of Lesion: LIVER: HEPATOCELLULAR CARCINOMA OR ADENOMA) “active; positive”; (Species: RAT, Strain/Sex: F344/FEMALE, Route: ORAL, Dose: 0, 5000, 10000 PPM IN DIET, Dose: 0, 5000, 10000 PPM IN DIET) “inactive; negative”; (Species: RAT, Strain/Sex: F344/MALE, Route: ORAL, Dose: 0, 5000, 10000 PPM IN DIET, Dose: 0, 5000, 10000 PPM IN DIET, Tumor Site: Type of Lesion: HEMATOPOIETIC SYSTEM (LEUKEMIA): MONOCYTIC LEUKEMIA, LYMPHATIC SYSTEM: LYMPHOMA) “active; positive”.

With `C#C[C@]1(O)CC[C@H]2[C@@H]3CCc4cc(O)ccc4[C@H]3CC[C@@]21C`, the carcinogen call was “active; positive” (Species: MOUSE, Route: ORAL, Tumor Site: Type of Lesion: CERVIX, MAMMARY GLAND, PITUITARY GLAND, UTERUS, Tumor Site: Type of Lesion: CERVIX, MAMMARY GLAND, PITUITARY GLAND, UTERUS); “active; positive” (Species: MOUSE, Strain/Sex: CD-1/FEMALE, Route: SUBCUTANEOUS, Dose: 0, 2 UG/D IN CORN OIL ON DAYS 1-5 OF LIFE (STUDY DURATION: 12-18 WK), Tumor Site: Type of Lesion: UTERUS: ADENOCARCINOMA); “active; positive” (Species: RAT, Route: ORAL, SUBCUTANEOUS, Tumor Site: Type of Lesion: LIVER); “inactive; negative” (Species: Rat, Strain/Sex: Sprague-Dawley/Female (50/Group), Route: Oral, Dose: 0, 2, 10, 50 ppb in diet, continuous exposure from conception through 2 yr, Dose: 0, 2, 10); “inactive; negative (authors describe as equivocal evidence based on stromal polyp (2/51, 5” (Species: Rat, Strain/Sex: Sprague-Dawley/Female (50/Group), Route: Oral, Dose: 0, 2, 10, 50 ppb in diet, continuous exposure from conception through PND 140, followed by control diet to 2 yr, Dose: 0, 2, 10); “inactive; negative” (Species: Rat, Strain/Sex: Sprague-Dawley/Male (50/Group), Route: Oral, Dose: 0, 2, 10, 50 ppb in diet, continuous exposure from conception through 2 yr, Dose: 0, 2, 10). The carcinogen call (Species: Rat, Strain/Sex: Sprague-Dawley/Male (50/Group), Route: Oral, Dose: 0, 2, 10, 50 ppb in diet, continuous exposure from conception through PND 140, followed by control diet to 2 yr, Dose: 0, 2, 10) was “inactive; negative”.

Turning to `N[C@H](CCC(=O)N[C@H](Cc1c[nH]c2ccccc12)C(=O)O)C(=O)O`, the carcinogen call was “inactive; negative” (Species: MOUSE, Strain/Sex: C57BL.CBA, Route: SC, Dose: 0.0145 AND 0.145 MG/KG 2X WK FOR 104 WK (STUDY DURATION: 104 WK)) and “inactive; negative” (Species: RAT, Strain/Sex: WISTAR, Route: SC, Dose: 0.0145 AND 0.145 MG/KG 2X WK FOR 104 WK (STUDY DURATION: 104 WK)).

Turning to `CC(=O)OC/C=C(C)/C=C/C=C(C)/C=C/C1=C(C)CCCC1(C)C`, the carcinogen call is, setting by setting: (Species: RAT, Strain/Sex: F344/FEMALE, Route: ORAL, Dose: 0, 0.125, 0.25% IN DRINKING WATER (TOTAL DOSE: 0; 50; 95 G/KG) FOR 104 WK (STUDY DURATION: 108 WK), Dose: 0, 0.125, 0.25% IN DRINKING WATER (TOTAL DOSE: 0; 50; 95 G/KG) FOR 104 WK (STUDY DURATION: 108 WK), Tumor Site: Type of Lesion: ADRENAL GLAND: MALIGNANT OR BENIGN PHEOCHROMOCYTOMA, BENIGN PHEOCHROMOCYTOMA, BILATERAL LESIONS, CLITORAL GLAND: ADENOMA) “active; positive”; (Species: RAT, Strain/Sex: F344/MALE, Route: ORAL, Dose: 0, 0.125, 0.25% IN DRINKING WATER (TOTAL DOSE: 0; 50; 95 G/KG) FOR 104 WK (STUDY DURATION: 108 WK), Dose: 0, 0.125, 0.25% IN DRINKING WATER (TOTAL DOSE: 0; 50; 95 G/KG) FOR 104 WK (STUDY DURATION: 108 WK), Tumor Site: Type of Lesion: ADRENAL GLAND: MALIGNANT PHEOCHROMOCYTOMA, BENIGN PHEOCHROMOCYTOMA, BILATERAL LESIONS) “active; positive”.

Turning to `Cc1cccc2cccnc12`, the carcinogen call runs as follows: (Species: MOUSE, Strain/Sex: CD-1/FEMALE, Route: INTRAPERITONEAL, Dose: 0, 0.25, 0.5, 1.0 UMOL IN DMSO TO NEWBORN MICE ON DAYS 1, 8 AND 15 OF LIFE RESPECTIVELY (TOTAL DOSE: 1.75 UMOL) (STUDY D, Dose: 0, 0.25, 0.5, 1.0 UMOL IN DMSO TO NEWBORN MICE ON DAYS 1, 8 AND 15 OF LIFE RESPECTIVELY (TOTAL DOSE: 1.75 UMOL) (STUDY D) “inactive; negative”; (Species: MOUSE, Strain/Sex: CD-1/MALE, Route: INTRAPERITONEAL, Dose: 0, 0.25, 0.5, 1.0 UMOL IN DMSO TO NEWBORN MICE ON DAYS 1, 8 AND 15 OF LIFE RESPECTIVELY (TOTAL DOSE: 1.75 UMOL) (STUDY D, Dose: 0, 0.25, 0.5, 1.0 UMOL IN DMSO TO NEWBORN MICE ON DAYS 1, 8 AND 15 OF LIFE RESPECTIVELY (TOTAL DOSE: 1.75 UMOL) (STUDY D) “inactive; negative”; (Species: RAT, Strain/Sex: F344/MALE,FEMALE, Route: ORAL, Dose: 0.05% IN DIET FOR 2 YR) “inactive; negative”; (Species: RAT, Strain/Sex: SPRAGUE-DAWLEY/MALE, Route: SUBCUTANEOUS, Dose: 0, 200 UMOL/KG IN DMSO INTO SUPRASCAPULAR AREA ON DAY 1 OF LIFE FOLLOWED BY 0, 100 UMOL 1/WK AT WK 2-7 THEN 0, 200 UMOL/, Dose: 0, 200 UMOL/KG IN DMSO INTO SUPRASCAPULAR AREA ON DAY 1 OF LIFE FOLLOWED BY 0, 100 UMOL 1/WK AT WK 2-7 THEN 0, 200 UMOL/) “inactive; negative”; (Species: SPRAGUE-DAWLEY/MALE, Strain/Sex: SPRAGUE-DAWLEY/FEMALE, Route: SUBCUTANEOUS, Dose: 0, 200 UMOL/KG IN DMSO INTO SUPRASCAPULAR AREA ON DAY 1 OF LIFE FOLLOWED BY 0, 100 UMOL 1/WK AT WK 2-7 THEN 0, 200 UMOL/, Dose: 0, 200 UMOL/KG IN DMSO INTO SUPRASCAPULAR AREA ON DAY 1 OF LIFE FOLLOWED BY 0, 100 UMOL 1/WK AT WK 2-7 THEN 0, 200 UMOL/) “inactive; negative”.

With `CCOP(=S)(OCC)Oc1cc(C)nc(C(C)C)n1`, the carcinogen call was “inactive; negative” (Species: MOUSE, Strain/Sex: B6C3F1/FEMALE, Route: ORAL, Dose: 0, 100, 200 PPM IN DIET, Dose: 0, 100, 200 PPM IN DIET); “inactive; negative” (Species: MOUSE, Strain/Sex: B6C3F1/MALE, Route: ORAL, Dose: 0, 100, 200 PPM IN DIET, Dose: 0, 100, 200 PPM IN DIET); “inactive; negative” (Species: RAT, Strain/Sex: F344/FEMALE, Route: ORAL, Dose: 0, 400, 800 PPM IN DIET, Dose: 0, 400, 800 PPM IN DIET); “inactive; negative” (Species: RAT, Strain/Sex: F344/MALE, Route: ORAL, Dose: 0, 400, 800 PPM IN DIET, Dose: 0, 400, 800 PPM IN DIET).
